Test results published in patent US12185723B2, “Herbicidally active 3-phenylisoxazoline-5-carboxamides of s-containing cyclopentenylcarboxylic esters” (Bayer Aktiengesellschaft, priority 2019, dated 2025).

Experiments:
Format in all cases: in vivo
Stellaria media = assay: Post-emergence herbicidal action against STEME
Procedure: (§1) Post-Emergence Herbicidal Action Against Harmful Plants and Crop Plant Compatibility Seeds of monocotyledonous and dicotyledonous weeds and crop plants are placed in sandy loam in plastic or wood-fibre pots, covered with soil and cultivated in a greenhouse under controlled growth conditions. 2 to 3 weeks after sowing, the test plants are treated at the one-leaf stage. The compounds of the invention, formulated in the form of wettable powders (WP) or as emulsion concentrates (EC), are then sprayed onto the green parts of the plants as aqueous suspension or emulsion with addition of 0.5% additive at a water application rate of 600 l/ha (converted). After the test plants have been kept in the greenhouse under optimum growth conditions for about 3 weeks, the activity of the preparations is rated visually in comparison to untreated controls. For example, 100% activity=the plants have died, 0% activity=like control plants. [table]

DIGSA = assay: Post-emergence herbicidal action against DIGSA; conditions: visual rating about 3 weeks after treatment
Outline: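 Greenhouse-grown plants sprayed at one-leaf stage (2–3 weeks after sowing) with WP or EC formulations as aqueous suspension/emulsion plus 0.5% additive, 600 l/ha water. Activity rated visually about 3 weeks later versus untreated controls, 100% = plants dead, 0% = like controls.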

Veronica persica = assay: Post-emergence herbicidal action against VERPE
Outline: (§2)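 Weeds sown in sandy loam, greenhouse-grown 2 to 3 weeks and treated at the one-leaf stage. Compounds formulated as WP or EC were sprayed onto green parts as aqueous suspension/emulsion with 0.5% additive at 600 l/ha water. Activity rated visually after about 3 weeks versus untreated controls (100% = plants dead, 0% = like control).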

Setaria viridis = assay: Post-emergence herbicidal action against SETVI; conditions: visual rating about 3 weeks after treatment
Outline: as §2

Avena fatua = assay: Post-emergence herbicidal action against AVEFA; conditions: visual rating about 3 weeks after treatment
Outline: as §2

Polygonum convolvulus = assay: Post-emergence herbicidal action against POLCO
Outline: as §2

Viola tricolor = assay: Post-emergence herbicidal action against VIOTR
Procedure: as §1

Lolium rigidum = assay: Post-emergence herbicidal action against LOLRI; conditions: visual rating about 3 weeks after treatment
Outline: as §2

Echinochloa crus-galli = assay: Post-emergence herbicidal action against ECHCG; conditions: visual rating about 3 weeks after treatment
Outline: as §2

Alopecurus myosuroides = assay: Post-emergence herbicidal action against ALOMY; conditions: visual rating about 3 weeks after treatment
Outline: as §2

Amaranthus retroflexus = assay: Post-emergence herbicidal action against AMARE
Outline: as §2

Pharbitis purpurea = assay: Post-emergence herbicidal action against PHBPU
Outline: as §2

Hordeum murinum = assay: Post-emergence herbicidal action against HORMU
Procedure: as §1

Abutilon theophrasti = assay: Post-emergence herbicidal action against ABUTH; conditions: visual rating about 3 weeks after treatment
Procedure: as §1

Matricaria inodora = assay: Post-emergence herbicidal action against MATIN; conditions: 20 g a.i./ha
Procedure: as §1

[1] = 80 g a.i./ha, visual rating about 3 weeks after treatment

SMILES | Herbicidal action against [%] STEME (Stellaria media; 20 g a.i./ha) [%] | Herbicidal action against [%] STEME (Stellaria media; 80 g a.i./ha) [%] | Herbicidal action against [%] DIGSA (DIGSA; 20 g a.i./ha) [%] | Herbicidal action against [%] DIGSA (DIGSA; 80 g a.i./ha) [%] | Herbicidal action against [%] VERPE (Veronica persica; 20 g a.i./ha) [%] | Herbicidal action against [%] VERPE (Veronica persica; 80 g a.i./ha) [%] | Herbicidal action against [%] SETVI (Setaria viridis; 20 g a.i./ha) [%] | Herbicidal action against [%] SETVI (Setaria viridis; 80 g a.i./ha) [%] | Herbicidal action against [%] AVEFA (Avena fatua; 20 g a.i./ha) [%] | Herbicidal action against [%] AVEFA (Avena fatua; 80 g a.i./ha) [%] | Herbicidal action against [%] POLCO (Polygonum convolvulus; 20 g a.i./ha) [%] | Herbicidal action against [%] POLCO (Polygonum convolvulus; 80 g a.i./ha) [%] | Herbicidal action against [%] VIOTR (Viola tricolor; 20 g a.i./ha) [%] | Herbicidal action against [%] LOLRI (Lolium rigidum; 20 g a.i./ha) [%] | Herbicidal action against [%] LOLRI (Lolium rigidum; 80 g a.i./ha) [%] | Herbicidal action against [%] ECHCG (Echinochloa crus-galli; 80 g a.i./ha) [%] | Herbicidal action against [%] ALOMY (Alopecurus myosuroides; 20 g a.i./ha) [%] | Herbicidal action against [%] ALOMY (Alopecurus myosuroides; 80 g a.i./ha) [%] | Herbicidal action against [%] AMARE (Amaranthus retroflexus; 20 g a.i./ha) [%] | Herbicidal action against [%] HORMU (Hordeum murinum; 80 g a.i./ha) [%] | also measured
CSCCOC(=O)C1C=CC(NC(=O)C2(C(F)(F)F)CC(c3cc(F)cc(C#N)c3)=NO2)C1 (mixture of isomers) [Example I-37] | 80 | 80 | 80 | 90 | 80 | 90 | 80 | 80 | 90 | 90 | 80 | 80 | 80 | 90 | 90 | 80 | 90 | 90 | 80 | 80 | Herbicidal action against [%] AMARE (Amaranthus retroflexus; [1]): 80%; Herbicidal action against [%] PHBPU (Pharbitis purpurea; 80 g a.i./ha): 80%; Herbicidal action against [%] HORMU (Hordeum murinum; 20 g a.i./ha): 80%
C=CC1(C(=O)NC2C=CC(C(=O)OCCSC)C2)CC(c2ccccc2)=NO1 (mixture of isomers) [Example I-48] | 90 | 90 | 80 | 90 | 80 | 90 | 80 | 80 |  | 90 |  |  | 90 | 80 | 90 | 80 |  | 100 |  | 80 | Herbicidal action against [%] PHBPU (Pharbitis purpurea; 80 g a.i./ha): 80%
C=CC1(C(=O)NC2CC=C(C(=O)OCCSC)C2)CC(c2cc(F)cc(F)c2)=NO1 (centres unmarked) [Example I-50] | 80 | 90 | 90 | 90 |  | 90 |  | 90 | 90 | 100 | 80 | 90 | 80 |  | 100 | 90 |  | 100 | 90 | 100 | Herbicidal action against [%] ABUTH (Abutilon theophrasti; 80 g a.i./ha): 80%; Herbicidal action against [%] VIOTR (Viola tricolor; 80 g a.i./ha): 90%; Herbicidal action against [%] AMARE (Amaranthus retroflexus; [1]): 90%; Herbicidal action against [%] PHBPU (Pharbitis purpurea; 20 g a.i./ha): 90%; Herbicidal action against [%] PHBPU (Pharbitis purpurea; 80 g a.i./ha): 90%; Herbicidal action against [%] HORMU (Hordeum murinum; 20 g a.i./ha): 100%
CSCCOC(=O)C1C=CC(NC(=O)C2(C)CC(c3cccc(F)c3)=NO2)C1 (centres unmarked) [Example I-34] | 90 | 90 | 80 | 80 | 90 | 90 | 80 | 80 | 90 | 90 | 80 | 90 | 90 | 100 | 100 | 80 | 100 | 100 |  | 80 | Herbicidal action against [%] ABUTH (Abutilon theophrasti; 80 g a.i./ha): 80%; Herbicidal action against [%] VIOTR (Viola tricolor; 80 g a.i./ha): 80%; Herbicidal action against [%] ECHCG (Echinochloa crus-galli; 20 g a.i./ha): 80%; Herbicidal action against [%] PHBPU (Pharbitis purpurea; 20 g a.i./ha): 90%; Herbicidal action against [%] PHBPU (Pharbitis purpurea; 80 g a.i./ha): 90%; Herbicidal action against [%] HORMU (Hordeum murinum; 20 g a.i./ha): 80%
CSCCOC(=O)C1C=CC(NC(=O)C2(C3CC3)CC(c3cc(F)cc(F)c3)=NO2)C1 (centres unmarked) [Example I-30] |  |  | 80 | 90 | 80 | 90 |  | 80 | 90 | 90 |  | 80 |  | 90 | 90 |  |  | 90 |  | 90 | Herbicidal action against [%] VIOTR (Viola tricolor; 80 g a.i./ha): 80%; Herbicidal action against [%] AMARE (Amaranthus retroflexus; [1]): 80%; Herbicidal action against [%] HORMU (Hordeum murinum; 20 g a.i./ha): 90%
COC1(C(=O)NC2C=CC(C(=O)OCCSC(=O)N(C)C)C2)CC(c2cc(F)cc(F)c2)=NO1 (centres unmarked) [Example I-24] |  |  | 80 |  | 100 |  | 90 |  | 90 |  | 80 |  |  | 90 |  |  | 80 |  | 90 |  | Herbicidal action against [%] ABUTH (Abutilon theophrasti; 20 g a.i./ha): 80%; Herbicidal action against [%] MATIN (Matricaria inodora): 80%; Herbicidal action against [%] ECHCG (Echinochloa crus-galli; 20 g a.i./ha): 90%; Herbicidal action against [%] PHBPU (Pharbitis purpurea; 20 g a.i./ha): 80%
CSCCOC(=O)C1C=CC(NC(=O)C2(C)CC(c3cccc(C#N)c3)=NO2)C1 (centres unmarked) [Example I-40] | 80 | 80 |  | 80 | 80 | 80 |  |  |  |  |  |  | 80 | 80 | 80 | 80 |  | 80 |  |  | Herbicidal action against [%] ABUTH (Abutilon theophrasti; 20 g a.i./ha): 80%; Herbicidal action against [%] ABUTH (Abutilon theophrasti; 80 g a.i./ha): 80%; Herbicidal action against [%] ECHCG (Echinochloa crus-galli; 20 g a.i./ha): 80%
CSCCOC(=O)C1C=CC(NC(=O)C2(C)CC(c3cc(C#N)cc(C#N)c3)=NO2)C1 (mixture of isomers) [Example I-46] | 90 | 90 | 90 | 90 | 80 | 90 | 90 | 90 | 90 | 90 | 80 | 90 | 90 | 90 | 90 | 80 | 90 | 90 |  | 90 | Herbicidal action against [%] VIOTR (Viola tricolor; 80 g a.i./ha): 80%; Herbicidal action against [%] AMARE (Amaranthus retroflexus; [1]): 90%; Herbicidal action against [%] PHBPU (Pharbitis purpurea; 80 g a.i./ha): 80%; Herbicidal action against [%] HORMU (Hordeum murinum; 20 g a.i./ha): 90%
CCSCCOC(=O)C1C=CC(NC(=O)C2(C)CC(c3cc(F)cc(F)c3)=NO2)C1 (centres unmarked) [Example I-02] |  |  | 90 |  | 90 |  | 90 |  | 90 |  | 90 |  |  | 90 |  |  | 100 |  | 90 |  | Herbicidal action against [%] ABUTH (Abutilon theophrasti; 20 g a.i./ha): 90%; Herbicidal action against [%] MATIN (Matricaria inodora): 80%; Herbicidal action against [%] ECHCG (Echinochloa crus-galli; 20 g a.i./ha): 90%; Herbicidal action against [%] PHBPU (Pharbitis purpurea; 20 g a.i./ha): 80%
COC1(C(=O)NC2C=CC(C(=O)OCCSC)C2)CC(c2cc(F)cc(F)c2)=NO1 (centres unmarked) [Example I-19] |  |  | 90 |  | 90 |  | 90 |  | 90 |  | 80 |  |  | 90 |  |  | 80 |  | 80 |  | Herbicidal action against [%] ABUTH (Abutilon theophrasti; 20 g a.i./ha): 80%; Herbicidal action against [%] MATIN (Matricaria inodora): 80%; Herbicidal action against [%] ECHCG (Echinochloa crus-galli; 20 g a.i./ha): 90%; Herbicidal action against [%] PHBPU (Pharbitis purpurea; 20 g a.i./ha): 80%
